Where two headings read alike, the source gives them in different places. Marks after values point to notes of the source that are not given here.
What was measured:
[1] = Summary of all three algogenic models; type: in vivo; settings: in words
Description: All the compounds mentioned above have profound for further value development.

Kunming mice [2] = experiment: Sedation: spontaneous activities recorded with alternating current tube; type: in vivo
Experimental: Kunming mice were used, with a male-female ratio of 50-50%. […] After 30 minutes, acetic acid (0.7%, […] i.p.) was injected and the number of writhes was observed during a 5-minute period after acetic acid administration. The inhibition ratio of the writhing threshold was calculated. The alternating current tube is used to record the spontaneous activities for measuring sedation.

Acute toxicity in rats = settings: rat, in vivo, po, Bliss method
[3] = tested on: S. typhimurium TA97, TA98, TA100 and TA102; experiment: Bacterial reverse-mutation assay (Ames); type: cell-based; settings: for Effect on bacterial growth: 5000 μg/plate
Description: Strains: S. typhimurium TA97, TA98, TA100 and TA102
Results: The assay included two parts without S9 and with S9. […] For all tested doses, there was no significant increase of revertants. Ames test for of IV-12 is negative.

rat = experiment: animal or person; settings: for responders at 20 mg/kg: ip
Experimental: Using 55° C. hot plate pain threshold detector (available from Ninghai Baishi Electronic Medical Instrument Co., Zheijiang, China) the threshold change before and after administration of a pharmaceutical composition of the present invention is tested. […] hind paw was scrubbed with alcohol cotton ball before the experiment. The regular pain threshold was tested twice for each rat, the induced hind paw licking time being recorded as the pain threshold. Measurements were made at 20-30 minute intervals. Only rats with stable pain reaction were used in the pharmaceutical test.
Two species of animals (mice and rats) and four types of pain testing models (i.p. 0.7% acetic acid, s.c. 5% formalin, hot plate 55° C., focused radiant heat) were used.

rats [4] = experiment: Spontaneous withdrawal tests (body weight); type: in vivo
Experimental: 96 mice were divided into 4 groups (24 for each group, ? fifty-fifty), and Morphine, IV-12-1, IV-12-2, warm boiled water were administered respectively, using progressive dose increase for 7 days (i.g.) and 2 times per day. The weight of the rats after drug withdrawal was compared with the weight one day before drug withdrawal at a corresponding time (See Table 9 and 10).

Mice [5] = experiment: Spontaneous activities of mice after oral IV-12; type: in vivo; settings: p.o. 15 or 30 mg/kg
NMDA receptor = experiment: Binding test with NMDA receptor; settings: 0.1 μM, 1 μM and 10 μM
rats [6] = experiment: Conditional position preference in rats
Description: A commercially available device for testing (Med Associates Inc.) was used. Measurements were automatically recorded by a computer.
The data are indicated by means of […], t-test was employed to compare the data in different groups. The rats were divided randomly into groups by weight, 12 for each group. They were positive control groups. […] The experiments were divided into stages of accommodation, training and test. Accommodation: Open the doors between black box and grey box and the door between white box and grey box. put the rats in from the grey box; let them run free in the training box for 15 minutes for 4 days. Training: The white box is with medicine while the black one is without it. The period training is 10 days, the first day with the medicine while the second day not; the third day with the medicine while the fourth day not, so on and so forth. When carrying out the training with medicine, 15 minutes after the rat is administrated (i.g.) with medicine, it is put into the white box for 30 minutes. When the training is without medicine, 15 minutes after the rat is administrated (i.g.) with saline, it is put into the black box for 30 minutes. Test: On the 11th day, the rat is put into the training box, with the door open. The time the rat stays in each box, and the number of time it enters during 15 minutes were determined, and the percentage of the time staying in the white box to the time together in white box and black box is calculated (Table 12).

rats [7] = experiment: Defervescence in rats given Brewers' yeast; type: in vivo; settings: p.o., 60 mg/kg, Brewers' yeast s.c. 7%
rats [8] = experiment: Precipitated withdrawal test in rats; type: in vivo; settings: for Abstinence syndrome (IV ± SD): 14 days, Narcan i.p. 4 mg/kg
Experimental: 48 rats were divided into 4 groups (12 for each group, ? fifty-fifty). Morphines IV-12-1 (75 mg/Kg), IV-12-2 (100 mg/Kg) and saline, was administered respectively using progressive dose increase for 14 days and 3 times per day. On the 15th day, Narcan is injected (i.p. 4 mg/kg) to precipitate withdrawal. The withdrawal syndrome was observed and the rats wre weighed at 30, 60 and 120 minutes after the injection respectively.

Mice [9] = experiment: Jumping test in mice (Narcan precipitated); type: in vivo; settings: for Times for jump (IV ± SD): 3 times per day for 7 days, Narcan i.p. 2 mg/kg
Experimental: Sixty-four mice were divided into 4 groups (16 for each group, ? fifty-fifty) Morphine, IV-12-1 (75 mg/Kg) IV-12-2 (100 mg/Kg) and saline were administrated respectively 3 times per day for 7 days with progressive dose increase. On the 7th day, Narcan is injected (i.p. 2 mg/kg) to precipitate withdrawal. The number of times for the mice to jump was recorded and the incidence of the jump calculated.

Kunming mice [10] = experiment: Mice writhing model (acetic acid); type: in vivo
Method in brief: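 Mixed-sex mice received test compound at 20 mg/Kg i.p.; controls received saline p.o. (20 ml/Kg). Thirty minutes later 0.7% acetic acid (10 mg/kg i.p.) was injected, and writhes were counted over 5 minutes. Inhibition ratio was calculated relative to control.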

Nc1ccc(CN2CCN(CC(=O)c3ccccc3)CC2)cc1 [IV-12, N^1-(4-aminobenzyl)-N^4-phenacyl piperazine]
Analgesic effect on all three algogenic models [1]: powerful analgesic effects | Sedative effect on all three algogenic models [1]: rather significant sedative effect | Sedation (writhing model) (Kunming mice [2]; 20 mg/kg, Table 5 summary): 97 | inhibition in vivo at 20 mg/kg (Kunming mice [2]; Mus musculus, ip, i.p. 20 mg/Kg, spontaneous activities): 97% | LD50 (Acute toxicity in rats): 414 mg/kg | Effect on bacterial growth ([3]; with S9, TA97): inhibitory effect | Effect on bacterial growth ([3]; without S9, TA98): inhibitory effect | Ames test ([3]; without S9 and with S9, TA97, TA98, TA100, TA102): negative | Increase (hot plate) (%) (rat; 20 mg/kg, Table 5 summary): 100% | responders at 20 mg/kg (rat; Rattus norvegicus, read-out: Analgesic ratio (Increase by 100%)): 100% | responders at 20 mg/kg (rat; Rattus norvegicus, read-out: Analgesic ratio (More than 60 seconds)): 80% | ED50 (rat; Rattus norvegicus, po, read-out: Analgesia ED50): 52.4 mg/kg | Weight after withdrawal compared with weight one day before withdrawal (rats [4]; IV-12-1 75 mg/kg, 138 h after withdrawal): 1.08 ± 0.06 | Increase (%) of weight (rats [4]; IV-12-1 (75 mg/kg), 18 h after withdrawal): 3.9% | Increase (%) of weight (rats [4]; IV-12-1 (75 mg/kg), 36 h after withdrawal): 5.3% | Weight (rats [4]; IV-12-1 (75 mg/kg), 60 h after withdrawal): 258.5 ± 38 g | Weight (rats [4]; IV-12-1 (75 mg/kg), 72 h after withdrawal): 251.6 ± 36 g | Weight after withdrawal compared with weight one day before withdrawal (rats [4]; IV-12-2 100 mg/kg, 18 h after withdrawal): 1.01 ± 0.04 | Increase (%) of weight (rats [4]; IV-12-2 (75 mg/kg), 60 h after withdrawal): 1.9% | Weight (rats [4]; IV-12-2 (75 mg/kg), 114 h after withdrawal): 260.1 ± 30 g | Increase (%) of weight (rats [4]; IV-12-2 (75 mg/kg), 132 h after withdrawal): 7.0% | Weight after drug withdrawal (in words) (rats [4]; groups IV-12-1 and IV-12-2): did not decrease | Behaviour / spontaneous activities (Mice [5]): quiet and suppressed from spontaneous activities | Antagonism on Glu site of NMDA receptor (NMDA receptor): no antagonism | Antagonism on Gly site of NMDA receptor (NMDA receptor): no antagonism | Antagonism on ion-channel site of NMDA receptor (NMDA receptor): no antagonism | Percent in the medicine box (%) (rats [6]; 10 mg/kg i.g.): 46.1 ± 16.3% | Percent in the medicine box (%) (rats [6]; 20 mg/kg i.g.): 51.9 ± 9.8% | Percent in the medicine box (%) (rats [6]; 50 mg/kg i.g.): 62.9 ± 5.4 % | Defervescence effect (rats [7]): no defervescence effect | Percent of the lost weight (IV ± SD) (rats [8]; IV-12-1 (75 mg/Kg), 30 min after Narcan): −1.8 ± 1.4 | Percent of the lost weight (IV ± SD) (rats [8]; IV-12-1 (75 mg/Kg), 60 min after Narcan): −2.6 ± 1.5 | Percent of the lost weight (IV ± SD) (rats [8]; IV-12-1 (75 mg/Kg), 120 min after Narcan): −3.1 ± 1.5 | Abstinence syndrome (IV ± SD) (rats [8]; IV-12-1 (75 mg/Kg)): 4.7 ± 3.9 | Percent of the lost weight (IV ± SD) (rats [8]; IV-12-2 (100 mg/Kg), 30 min after Narcan): −3.1 ± 1.3 | Percent of the lost weight (IV ± SD) (rats [8]; IV-12-2 (100 mg/Kg), 60 min after Narcan): −3.9 ± 1.4 | Percent of the lost weight (IV ± SD) (rats [8]; IV-12-2 (100 mg/Kg), 120 min after Narcan): −4.2 ± 1.5 | Abstinence syndrome (IV ± SD) (rats [8]; IV-12-2 (100 mg/Kg)): 5.3 ± 2.1 | Incidence for jump (%) (Mice [9]; IV-12-1 (75 mg/Kg)): 43.8*^## % | Times for jump (IV ± SD) (Mice [9]; IV-12-1 (75 mg/Kg)): 9 ± 18 | Incidence for jump (%) (Mice [9]; IV-12-2 (100 mg/Kg)): 62.5* % | Times for jump (IV ± SD) (Mice [9]; IV-12-2 (100 mg/Kg)): 33 ± 40 | Writhing (K i) (Kunming mice [10]; 20 mg/kg, Table 5 summary): 100 | inhibition in vivo at 20 mg/kg (Kunming mice [10]; Mus musculus, ip, i.p. 20 mg/Kg, acetic acid 0.7% i.p. after 30 minutes, writhes in 5 minutes, read-out: Analgesia (inhibition ratio of writhing)): 100% | ED50 (Kunming mice [10]; Mus musculus, po, Mice, Acetic acid Writhing, read-out: Analgesia ED50): 13.2 mg/kg
